Here are results for 15 molecules from patent EP0411184B1, “Ascorbic acid derivative” (NIPPON HYPOX LABORATORIES INCORPORATED, priority 1989, dated 1991).

The nature of the assay: Antioxidant action using stable radicals: reduction activity of DPPH (M. S. Blois method). The format is biochemical. The note with it: 0.1 mM DPPH solution in ethanol, absorbance at 517 nm after 20 minutes, difference from solvent control (0.5% or less DMF); read-out: 50% radical eliminating concentration. As for the experimental part: Test example 1 (Antioxidant action examined by using stable radicals)
Reduction activity of α,α-diphenyl-β-picrylhydrazyl (DPPH) which was a stable free radical was examined according to the M. S. Blois method (Nature, vol. 181, page 1199, 1958) and used as an index to antioxidant action. Thus, specimens were added to 3 mℓ of a 0.1 mM DPPH solution in ethanol, and absorbance at a wavelength of 517 nm was measured using a spectrophotometer after 20 minutes. The difference in absorbance from the solvent control [0.5% or less of dimethylformamide (DMF)] was taken as the reduction activity.
On the technique in general: DPPH is a stable violet radical that fades when it is reduced.
`CCCCCCCCCCCCCCCCCCOC1=C(O)C(=O)O[C@@H]1[C@@H](O)CO` [compound 101, reference compound]: the IC50 is 32 µM. To `CCCCCCCCCCCCOC1=C(O)C(=O)O[C@@H]1[C@@H](O)CO` [compound 102] belongs 18 µM; to `CCCCCCCCOC1=C(O)C(=O)O[C@@H]1[C@@H](O)CO` [compound 103], 19 µM; to `CCCCOC1=C(O)C(=O)O[C@@H]1[C@@H](O)CO` [compound 104], 23 µM. As to `CCOC(=O)CCCCOC1=C(O)C(=O)O[C@@H]1[C@@H](O)CO` [compound 105], the IC50 turned out to be 20 µM. The value for `CCOC(=O)CCCOC1=C(O)C(=O)O[C@@H]1[C@@H](O)CO` [compound 106] was 21 µM. In the case of `O=C(O)CCCOC1=C(O)C(=O)O[C@@H]1[C@@H](O)CO` [compound 107], the IC50 was determined as 27 µM. Consider `CCOC(=O)C(C)OC1=C(O)C(=O)O[C@@H]1[C@@H](O)CO` (stereo partly drawn) [compound 108], for which the IC50 came out at 19 µM. To `CCCCOC(=O)COC1=C(O)C(=O)O[C@@H]1[C@@H](O)CO` [compound 109] belongs 18 µM. As for `CCCCCCCCCCOC(=O)COC1=C(O)C(=O)O[C@@H]1[C@@H](O)CO` [compound 110], the IC50 came out at 23 µM.

With `CCOC(=O)COC1=C(O)C(=O)O[C@@H]1[C@@H](O)CO` [compound 111], the IC50 amounted to 22 µM. To `O=C1O[C@H]([C@@H](O)CO)C(OCC(=O)c2ccccc2)=C1O` [compound 112, L-3-O-benzoylmethylascorbic acid] belongs 23 µM; to `O=C1O[C@H]([C@@H](O)CO)C(OCc2cccnc2)=C1O` [compound 113, L-3-O-(3-picoyl)ascorbic acid], 23 µM; to `O=C(O)CCCCCCCCCCOC1=C(O)C(=O)O[C@@H]1[C@@H](O)CO` [compound 114], 24 µM.

As for `CC(=O)COC1=C(O)C(=O)O[C@@H]1[C@@H](O)CO` [compound 115], the IC50 is 22 µM.
